The assay concerns the target T1, TAOK3 (JIK) (Homo sapiens, UniProt Q9H2K8).
T1 construct: purchased Thermo Fisher Scientific (Life Technologies) SelectScreen
The experiment in a line: SelectScreen LanthaScreen. It counts as binding. To be noted: read-out: % displacement. The essentials: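 Percent values come from Thermo SelectScreen profiling of NU5455, combining activity and binding assays. CSF1R was run in Z'LYTE format at Km app ATP, and CAMK1 in Adapta format with ATP listed at 10.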
On the technique in general: Time-resolved FRET reads energy transfer from a long-lived donor to a nearby acceptor.

The text below walks through data of paper PMC6934184, “Selective DNA-PKcs inhibition extends the therapeutic index of localized radiotherapy and chemotherapy” (The Journal of Clinical Investigation, 2019).

T1 sequence (Q9H2K8 whole entry): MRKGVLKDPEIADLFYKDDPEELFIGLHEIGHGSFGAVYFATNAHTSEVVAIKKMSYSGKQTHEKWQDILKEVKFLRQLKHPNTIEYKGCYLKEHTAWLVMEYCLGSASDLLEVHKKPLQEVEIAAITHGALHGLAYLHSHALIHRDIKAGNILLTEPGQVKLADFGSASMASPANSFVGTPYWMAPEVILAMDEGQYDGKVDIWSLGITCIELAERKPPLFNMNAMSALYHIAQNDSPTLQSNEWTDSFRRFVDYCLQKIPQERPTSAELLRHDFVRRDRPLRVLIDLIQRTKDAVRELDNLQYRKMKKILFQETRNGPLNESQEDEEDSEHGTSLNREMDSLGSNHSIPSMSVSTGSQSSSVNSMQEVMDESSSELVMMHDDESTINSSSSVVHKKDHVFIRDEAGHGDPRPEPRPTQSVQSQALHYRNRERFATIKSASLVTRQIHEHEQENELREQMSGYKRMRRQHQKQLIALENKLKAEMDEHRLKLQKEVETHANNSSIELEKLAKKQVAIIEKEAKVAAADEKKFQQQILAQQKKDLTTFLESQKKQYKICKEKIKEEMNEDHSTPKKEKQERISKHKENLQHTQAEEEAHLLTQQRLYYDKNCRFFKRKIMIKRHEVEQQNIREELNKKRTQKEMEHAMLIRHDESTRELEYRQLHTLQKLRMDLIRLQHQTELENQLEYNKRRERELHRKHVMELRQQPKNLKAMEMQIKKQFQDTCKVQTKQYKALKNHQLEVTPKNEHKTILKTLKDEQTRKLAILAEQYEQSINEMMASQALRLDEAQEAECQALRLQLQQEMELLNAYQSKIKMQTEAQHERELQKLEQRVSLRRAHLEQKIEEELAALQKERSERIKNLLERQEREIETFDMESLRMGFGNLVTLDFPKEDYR

With `CN(C(=O)CN1CCOCC1)c1ccc2sc3c(-c4cccc5c(=O)cc(N6CC7CCC(C6)O7)oc45)cccc3c2c1` [NU5455], the inhibition at 1 µM was found to be 4.2%.
